The results in this text go back to publication PMC5358917, “Mechanism of H2S Oxidation by the Dissimilatory Perchlorate-Reducing Microorganism Azospira suillum PS” (mBio, 2017).

The target of assay [1] is T1, PcrAB (perchlorate reductase) (Azospira oryzae, UniProt G8QM55).
T1 construct: gene Dsui_0149; native PcrAB complex purified anoxically from wild-type PS cells, three-column protocol; periplasmic enzyme; with Perchlorate reductase subunit beta
T1 sequence (G8QM55 29-927): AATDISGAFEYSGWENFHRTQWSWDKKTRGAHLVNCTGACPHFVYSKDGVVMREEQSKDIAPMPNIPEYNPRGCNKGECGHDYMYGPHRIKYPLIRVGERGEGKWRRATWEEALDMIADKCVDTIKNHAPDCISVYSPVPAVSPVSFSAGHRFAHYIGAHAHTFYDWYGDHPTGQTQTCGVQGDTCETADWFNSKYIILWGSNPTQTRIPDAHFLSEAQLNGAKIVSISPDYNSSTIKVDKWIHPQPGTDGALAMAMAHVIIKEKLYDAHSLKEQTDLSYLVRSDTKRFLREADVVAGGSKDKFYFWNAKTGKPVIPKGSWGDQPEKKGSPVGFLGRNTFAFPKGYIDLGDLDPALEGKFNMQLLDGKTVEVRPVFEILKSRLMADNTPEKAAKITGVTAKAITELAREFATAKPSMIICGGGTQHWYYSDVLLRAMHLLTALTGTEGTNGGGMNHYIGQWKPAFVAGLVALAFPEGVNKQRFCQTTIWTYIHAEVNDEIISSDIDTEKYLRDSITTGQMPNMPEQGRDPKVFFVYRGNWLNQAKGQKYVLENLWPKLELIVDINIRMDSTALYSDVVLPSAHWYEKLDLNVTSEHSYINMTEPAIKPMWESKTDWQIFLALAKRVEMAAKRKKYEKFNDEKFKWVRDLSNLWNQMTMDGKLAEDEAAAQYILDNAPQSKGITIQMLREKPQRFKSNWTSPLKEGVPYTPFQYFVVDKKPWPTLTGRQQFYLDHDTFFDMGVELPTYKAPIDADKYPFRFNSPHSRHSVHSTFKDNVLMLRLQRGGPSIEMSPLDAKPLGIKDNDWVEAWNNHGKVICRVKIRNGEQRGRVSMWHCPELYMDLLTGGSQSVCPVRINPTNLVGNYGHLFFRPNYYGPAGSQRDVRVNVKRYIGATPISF
T1 sequence (G8QM54 1-333 partner): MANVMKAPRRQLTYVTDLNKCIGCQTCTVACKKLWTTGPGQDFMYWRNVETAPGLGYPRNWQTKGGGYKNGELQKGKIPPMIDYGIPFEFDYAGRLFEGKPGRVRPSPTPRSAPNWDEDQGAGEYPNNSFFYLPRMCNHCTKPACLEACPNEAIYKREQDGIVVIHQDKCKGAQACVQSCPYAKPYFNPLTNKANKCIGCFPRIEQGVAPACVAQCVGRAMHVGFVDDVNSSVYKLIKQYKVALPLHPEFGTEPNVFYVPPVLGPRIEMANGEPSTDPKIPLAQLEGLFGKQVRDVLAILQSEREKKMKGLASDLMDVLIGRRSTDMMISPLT
Put plainly: steady-state turnover, Cline assay of sulfide. The class given is biochemical. The note with it: H2S as electron donor; 0.2 uM PcrAB; anaerobic.

Assay [2] has as its target T1, PcrAB (perchlorate reductase). Briefly: steady-state turnover, ion chromatography of perchlorate and Cline assay of sulfide. Type of assay: biochemical. The note with it: H2S as electron donor; 0.2 uM PcrAB; anaerobic.

Each structure is given as a SMILES string.

In the case of `O=[N+]([O-])O` [nitrate], the “steady-state turnover, Cline assay of sulfide” value in assay [1] is “purified PcrAB also mediated H2S oxidation coupled to nitrate reduction”.
`[O-][Cl+3]([O-])([O-])O` [perchlorate]: the “steady-state turnover, ion chromatography of perchlorate and Cline assay of sulf” value in assay [2] is “Our results indicated that PcrAB independently mediated PSOX”.
